Here are results for eleven molecules from patent US7393870B2, “3-(heteroarylamino)methylene-1, 3-dihydro-2H-indol-2-ones as kinase inhibitors” (Allergan, Inc., priority 2001, dated 2008).

As a reminder, the inhibition is the drop in the measured response relative to a control, in per cent. A word on the IC50: it is the concentration at which inhibition is half-maximal.

T1 sequence (P35968 786-1356 limits assumed): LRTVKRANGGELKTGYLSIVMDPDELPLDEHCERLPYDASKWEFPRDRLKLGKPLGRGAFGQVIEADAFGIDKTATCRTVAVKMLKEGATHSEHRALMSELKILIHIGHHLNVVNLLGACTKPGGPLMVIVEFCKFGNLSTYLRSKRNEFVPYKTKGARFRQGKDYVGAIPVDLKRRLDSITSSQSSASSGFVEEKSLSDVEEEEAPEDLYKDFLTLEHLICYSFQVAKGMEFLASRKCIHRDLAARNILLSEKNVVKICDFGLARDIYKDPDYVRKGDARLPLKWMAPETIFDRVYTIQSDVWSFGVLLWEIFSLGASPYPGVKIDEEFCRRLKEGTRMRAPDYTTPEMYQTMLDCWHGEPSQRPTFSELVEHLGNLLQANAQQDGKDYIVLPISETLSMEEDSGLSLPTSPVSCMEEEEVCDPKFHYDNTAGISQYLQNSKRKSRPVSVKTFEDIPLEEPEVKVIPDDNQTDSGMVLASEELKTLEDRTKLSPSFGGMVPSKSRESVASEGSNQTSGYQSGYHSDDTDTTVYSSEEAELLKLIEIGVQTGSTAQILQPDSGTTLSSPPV

The subject of one assay is VEGF induced increases in intracellular calcium levels in HUVEC (human umbilical vein endothelial cells). Briefly: VEGF Stimulated Ca++ signal assay (FLIPR). The assay is classed as cell-based. The note with it: 10 μM compound, 30 min pre-incubation, VEGF 5 ng/mL. The method, then:
VEGF Stimulated Ca^++ Signal in vitro
(§1) Automated FLIPR (Fluorometric Imaging Plate Reader) technology was used to screen for inhibitors of VEGF induced increases in intracellular calcium levels in fluorescent dye loaded endothelial cells. HUVEC (human umbilical vein endothelial cells) (Clonetics) were seeded in 96-well fibronectin coated black-walled plates overnight @ 37° C./5% CO2. Cells were loaded with calcium indicator Fluo-4 for 45 minutes at 37° C. Cells were washed 4 times (Original Cell Wash, Labsystems) to remove extracellular dye. Test compounds were reconstituted in 100% DMSO and added to the cells to give a final DMSO concentration of 0.1%. […] Changes in fluorescence at 516 nm were measured simultaneously in all 96 wells using a cooled CCD camera. Data were generated by determining max-min fluorescence levels for unstimulated, stimulated, and drug treated samples. IC50 values for test compounds were calculated from % inhibition of VEGF stimulated responses in the absence of inhibitor. Protocol for KDR Assay: The cytoplasmic domain of the human VEGF receptor (VEGFR-2) was expressed as a Histidine-tagged fusion protein following infection of insect cells using an engineered baculovirus. His-VEGFR-2 was purified to homogeneity, as determined by SDS-PAGE, using nickel resin chromatography. […]
`Cc1cc(C)c(Cc2cc(NC=C3C(=O)Nc4ccccc43)[nH]n2)c(C)c1` [Example 36]: the inhibition at 10 µM came out at 69.3%.

Staying with this assay, now noted: VEGF 5 ng/mL, 0.01 to 10.0 μM.
For the molecule `Cc1cc(C)c(Cc2cc(NC=C3C(=O)Nc4ccccc43)[nH]n2)c(C)c1` [Example 36], the IC50 is 5.9 µM.

Another assay has as its target T1, cytoplasmic domain of the human VEGF receptor (VEGFR-2) (Homo sapiens, UniProt P35968).
T1 construct: The cytoplasmic domain of the human VEGF receptor (VEGFR-2) was expressed as a Histidine-tagged fusion protein; His (Histidine tag); made in house; host or cells: insect cells infected with an engineered baculovirus
Briefly: KDR Assay (kinase ELISA, poly-Glu-Tyr substrate). Format: biochemical. The note with it: His-VEGFR-2, 3.6 μM ATP. The method, then:
Automated FLIPR (Fluorometric Imaging Plate Reader) technology was used to screen for inhibitors of VEGF induced increases in intracellular calcium levels in fluorescent dye loaded endothelial cells. HUVEC (human umbilical vein endothelial cells) (Clonetics) were seeded in 96-well fibronectin coated black-walled plates overnight @ 37° C./5% CO2. Cells were loaded with calcium indicator Fluo-4 for 45 minutes at 37° C. Cells were washed 4 times (Original Cell Wash, Labsystems) to remove extracellular dye. Test compounds were reconstituted in 100% DMSO and added to the cells to give a final DMSO concentration of 0.1%. For screening, cells were pre-incubated with test agents for 30 minutes, at a single concentration (10 μM) or at concentrations ranging from 0.01 to 10.0 μM followed by VEGF stimulation (5 ng/mL). Changes in fluorescence at 516 nm were measured simultaneously in all 96 wells using a cooled CCD camera. Data were generated by determining max-min fluorescence levels for unstimulated, stimulated, and drug treated samples. IC50 values for test compounds were calculated from % inhibition of VEGF stimulated responses in the absence of inhibitor. Protocol for KDR Assay: The cytoplasmic domain of the human VEGF receptor (VEGFR-2) was expressed as a Histidine-tagged fusion protein following infection of insect cells using an engineered baculovirus. His-VEGFR-2 was purified to homogeneity, as determined by SDS-PAGE, using nickel resin chromatography. Kinase assays were performed in 96 well microtiter plates that were coated overnight with 30 μg of poly-Glu-Tyr (4:1) in 10 mM Phosphate Buffered Saline (PBS), pH 7.2-7.4. The plates were incubated with 1% BSA and then washed four times with PBS prior to starting the reaction. Reactions were carried out in 120 μL reaction volumes containing 3.6 μM ATP in kinase buffer (50 mM Hepes buffer pH 7.4, 20 mM MgCl2, 0.1 mM MnCl2 and 0.2 mM Na3VO4). Test compounds were reconstituted in 100% DMSO and added to the reaction to give a final DMSO concentration of 5%. Reactions were initiated by the addition 0.5 ng of purified protein. Following a ten minute incubation at 25° C., the reactions were washed four times with PBS containing 0.05% Tween-20. 100 μl of a monoclonal anti-phosphotyrosine antibody-peroxidase conjugate was diluted 1:10000 in PBS-Tween-20 and added to the wells for 30 minutes. Following four washes with PBS-Tween-20, 100 μl of 0-Phenylenediamine Dihydrochloride in Phosphate-citrate buffer, containing urea hydrogen peroxide, was added to the wells for 7 minutes as a colorimetric substrate for the peroxidase. The reaction was terminated by the addition of 100 μl of 2.5N H2SO4 to each well and read using a microplate ELISA reader set at 492 nm. IC50 values for compound inhibition were calculated directly from graphs of optical density (arbitrary units) versus compound concentration following subtraction of blank values. Miles Assay Description VEGF-induced Dermal Extravasation in Guinea Pig (Miles Assay). Male Hartley guinea pigs (300-600 g) were anesthetized with isofluorane, sheared, and given a single oral dose of drug or the respective vehicle. Ten minutes prior to the end of drug treatment, guinea pigs were anesthetized with isofluorane, and 0.5% Evans blue dye (EBD) in PBS (13-15 mg/kg dose of EBD) was injected intravenously. After 5 minutes, triplicate intradermal injections of 100 ng rhVEGF165 in 100 μl PBS and of 100 μl PBS alone were administered on the flank. After 20 minutes, each animal was euthanized with Pentosol, and the skin containing the intradermal injection sites was removed for image analysis.
Background: An ELISA detects its analyte on a solid surface through an enzyme-linked reagent.
The molecule `Cc1ccc(-c2cc(NC=C3C(=O)Nc4ccccc43)[nH]n2)c(C)c1` [Example 34, 3-{[5-(2,4-Dimethyl-phenyl)-2H-pyrazol-3-ylamino]-methylene}-1,3-dihydro-indol-2-one] returned an IC50 of at least 10 µM.

`Cc1cccc(Cc2cc(NC=C3C(=O)Nc4ccccc43)[nH]n2)c1` [Example 39, 3-{[5-(3-Methyl-benzyl)-2H-pyrazol-3-ylamino]-methylene}-1,3-dihydro-indol-2-one] showed an IC50 of at least 10 µM.

Take `Cc1cccc2c1C(=CNc1n[nH]c(-c3ccccc3)c1Br)C(=O)N2` [Example 12, 3-[(4-Bromo-5-phenyl-1H-pyrazol-3-ylamino)-methylene]-4-methyl-1,3-dihydro-indol-2-one]: the IC50 was at least 10 µM.

As for `Cc1cc(C)c(Cc2cc(NC=C3C(=O)Nc4ccccc43)[nH]n2)c(C)c1` [Example 36], the IC50 was at least 10 µM.

Consider `O=C1Nc2ccc(Cl)cc2C1=CNc1n[nH]c(-c2ccccc2)c1Br` [Example 13, 3-[(4-Bromo-5-phenyl-1H-pyrazol-3-ylamino)-methylene]-5-chloro-1,3-dihydro-indol-2-one], for which the IC50 was at least 10 µM.

With `Cc1cc(C)c2c(NC=C3C(=O)Nc4ccccc43)n[nH]c2n1` [Example 25, 3-[(4,6-Dimethyl-1H-pyrazolo[3,4-b]pyridin-3-ylamino)-methylene]-1,3-dihydro-indol-2-one], the IC50 is at least 10 µM.

Take `COC(=O)c1ccc(-c2cc(NC=C3C(=O)Nc4ccccc43)n[nH]2)cc1` [Example 24, 4-{5-[(2-Oxo-1,2-dihydro-indol-3-ylidenemethyl)-amino]-2H-pyrazol-3-yl}-benzoic acid methyl ester]: the IC50 was at least 10 µM.

The molecule `O=C1Nc2ccccc2C1=CNc1cc(-c2cc(OCc3ccccc3)cc(OCc3ccccc3)c2)n[nH]1` [Example 31, 3-{[5-(3,5-Bis-benzyloxy-phenyl)-2H-pyrazol-3-ylamino]-methylene}-1,3-dihydro-indol-2-one] had an IC50 of at least 10 µM.

In the case of `O=C1Nc2ccccc2C1=CNc1cc(Cc2ccccc2)n[nH]1` [Example 40, 3-[(5-Benzyl-2H-pyrazol-3-ylamino)-methylene]-1,3-dihydro-indol-2-one], the IC50 is at least 10 µM.

The next assay relates to VEGF-induced EBD extravasation. Briefly: Miles Assay: VEGF-induced Dermal Extravasation in Guinea Pig. The note with it: oral administration, Table 3. Format: in vivo. The method, then:
as §1
Take `Cc1cc(NC=C2C(=O)Nc3ccc(F)cc32)n[nH]1` [Example 26, 5-Fluoro-3-[(5-methyl-1H-pyrazol-3-ylamino)-methylene]-1,3-dihydro-indol-2-one]: the “in-vivo activity (Miles Assay, in words)” value was “significant in-vivo activity”.

`Cc1cccc2c1C(=CNc1cc[nH]n1)C(=O)N2` [Example 6, 4-Methyl-3-[(1H-pyrazol-3-ylamino)-methylene]-1,3-dihydro-indol-2-one]: the “in-vivo activity (Miles Assay, in words)” value is listed as “significant in-vivo activity”.
